Assay [1] has as its system FAP. As to conditions: cited from earlier work; for EC50: ref Lindner et al., 2018.
The subject of assay [2] is U87MG cells. The assay is described as follows: Cellular uptake of [^18F]3 in U87MG cells. In kind it is cell-based. As to conditions: U87 cells; compound 3 10 µM. How it is done: (§1) Briefly, all cells were divided into the following two groups: A: blocking group and B: vehicle group. All cells were cultured, grouped, and plated (approximately 2*10^6 cells per well) before use. Cells were treated with [^18F]3 (74 KBq) and incubated at 37°C under a 5% CO2 atmosphere. […] Incubated at 37°C for 1 h, the medium from each well was removed, and the cells were washed twice with 1 mL of PBS. The medium and the PBS from each well were combined and counted in a Gamma counter (PerkinElmer Wizard 2470) for radioactivity counts. The cells were then handled with 1 mL of 1 M NaOH, and the lysates were also counted in the Wizard 2470 gamma counter. The uptake ratios for each group were then calculated with this equation: %Dose = […](medium counts + PBS counts + cell lysate counts).

Assay [3] concerns A549-FAPI cells (human FAP-expressing A549). Briefly: Cellular uptake of [^18F]3 in A549-FAPI cells. The settings on record: compound 3 10 µM. The format is cell-based. As to the method: as §1
For assay [4], the system named is A549-FAPI xenograft tumors. The assay is described as follows: Micro-PET/CT imaging, A549-FAPI xenograft tumors. The format is in vivo, BALB/c nude mice. The settings on record: A549-FAPI tumors; pre-injection of compound 3, 2 mg/kg. As to the method: BALB/c nude mice used in this study were obtained from the Animal Center of Sichuan University. Tumor-bearing mouse models were established by the subcutaneous injection of 100 µL of PBS suspension containing approximately 1*10^6 tumor cells to the body side of the subjects. The tumor volume was monitored every day, and the tumor-bearing mice were ready for imaging once the tumor volume reached 0.5 mm^3 (tumor volume can be calculated by this equation: Volume = 0.5 * long tail * short tail *short tail). Micro-PET/CT imaging studies were performed on the IRIS Micro-PET/CT system (Inviscan SAS, France). Tumor-bearing mice were injected with approximately 11.2–14.8 MBq of [^18F]3 (200 µL) via the tail vein under anaesthetization by isoflurane. Static PET images were obtained at designated time points and were reconstructed with a 3D-OSEM algorithm using a Monte Carlo-based accurate detector model. Then, 170 sec-CT acquisition was conducted with 50 kV, 1 mA X-ray output for attenuation correction and anatomical orientation. ROIs (regions of interest) were drawn on the lung, kidney, liver, and tumor by OsiriX software. SUV (standardized uptake value) of the ROIs was directly obtained from OsiriX for each subject according to this formula: SUV = Voxal value (Bq/mL) * Body weight (kg)/(Decay corrected Dose (Bq) * 1,000 (g/kg)).
BALB/c nude mice used in this study were obtained from the Animal Center of Sichuan university. Tumor-bearing mice model were established by the subcutaneous injection of 100 µL of PBS suspension containing approximately 1*10^6 tumor cells to the body side of the subjects. The tumor volume was monitored every day and the tumor-bearing mice were ready for imaging once the tumor volume reach 0.5 mm^3 (tumor volume can be calculated by this equation: Volume = 0.5 * long tail * short tail *short tail). Micro-PET/CT imaging studies were performed on the IRIS Micro-PET/CT system (Inviscan SAS, France). Tumor-bearing mice were injected with approximately 11.2-14.8 MBq of [^18F]3 (200 µL) via tail vein under anaesthetization by isoflurane. Static PET images were obtained at designated time points and were reconstructed with a 3D-OSEM algorithm using a Monte-Carlo based accurate detector model. A 170 sec-CT acquisition was conducted with 50 kV, 1 mA X-ray output for attenuation correction and anatomical orientation. ROIs (regions of interest) were drawn on lung, kidney, liver and tumor by Osirix software. SUV (standardized uptake value) of the ROIs was directly obtained from Osirix for each subject according to this formula: SUV = Voxal value (Bq/mL) * Body weight (kg)/(Decay corrected Dose (Bq) * 1000 (g/kg)).

The mark [5] stands for this setting: ref Jansen et al., 2013, Jansen et al., 2014, read-out: FAP IC50.
Setting [6] is: FAP, ref Wang et al., 2022, read-out: IC50.

Where two headings read alike, the source gives them in different places.

As usually defined, the EC50 is the concentration needed to bring the measured effect to its halfway point. For the molecule `N#C[C@@H]1CCCN1C(=O)CNC(=O)c1ccnc2ccc(OCCCN3CCN(C(=O)CN4CCN(CC(=O)O)CCN(CC(=O)O)CCN(CC(=O)O)CC4)CC3)cc12` [FAPI-02], the EC50 in assay [1] is 21 nM.
Turning to `N#C[C@@H]1CC(F)(F)CN1C(=O)CNC(=O)c1ccnc2ccc(F)cc12` [compound 3], the “Uptake in blocking group as % of vehicle group” value is listed as 79.38% in assay [2] and 52.34% in assay [3]. Further, the “Inhibition of tumor SUV” value in assay [4] is reported as “over 50%”. Besides, in assay [1] (ref previous SAR studies), the “Inhibitory activity against FAP” value is listed as “nanomolar activity”.
By IC50 is commonly meant the concentration at which inhibition is half-maximal. Turning to `N#C[C@@H]1CCCN1C(=O)CNC(=O)c1ccnc2ccc(F)cc12` [compound 2], in assay [1] (setting [5]), the IC50 is 10.3 nM.
Regarding `[11CH3]Oc1ccc2nccc(C(=O)NCC(=O)N3CC(F)(F)C[C@H]3C#N)c2c1` [[^11C]RJ002], the IC50 in assay [1] (setting [6]) was 8.5 nM.
In the case of `N#C[C@@H]1CC(F)(F)CN1C(=O)CNC(=O)c1ccnc2ccc(OCCCN3CCN(C(=O)CN4CCN(CC(=O)O)CCN(CC(=O)O)CCN(CC(=O)O)CC4)CC3)cc12` [FAPI-04], the half-maximal effective concentration (EC50) in assay [1] was 6.5 nM.
Turning to `[11CH3]Oc1ccc2nccc(C(=O)NCC(=O)N3CCC[C@H]3C#N)c2c1` [[^11C]RJ001], in assay [1] (setting [6]), the IC50 is 9.2 nM.
For the molecule `N#C[C@@H]1CC(F)(F)CN1C(=O)CNC(=O)c1ccnc2ccccc12` [compound 1], the IC50 in assay [1] (setting [5]) is […].

Values taken from publication PMC10086185, “Synthesis, radiolabeling, and evaluation of a (4-quinolinoyl)glycyl-2-cyanopyrrolidine analogue for fibroblast activation protein (FAP) PET imaging” (Frontiers in Bioengineering and Biotechnology, 2023).
